Measurements taken from patent EP0595557A1, “New substituted azetidinones as anti-inflammatory and antidegenerative agents” (MERCK & CO. INC., priority 1992, dated 1994).

Target: T1, Human Polymorphonuclear Leukocyte Elastase (Homo sapiens, UniProt P08246)
T1 construct: Crude extract of human polymorphonuclear leukocytes (PMN) containing elastase activity; from tissue; host or cells: human polymorphonuclear leukocytes (crude extract)
T1 sequence (P08246 30-267): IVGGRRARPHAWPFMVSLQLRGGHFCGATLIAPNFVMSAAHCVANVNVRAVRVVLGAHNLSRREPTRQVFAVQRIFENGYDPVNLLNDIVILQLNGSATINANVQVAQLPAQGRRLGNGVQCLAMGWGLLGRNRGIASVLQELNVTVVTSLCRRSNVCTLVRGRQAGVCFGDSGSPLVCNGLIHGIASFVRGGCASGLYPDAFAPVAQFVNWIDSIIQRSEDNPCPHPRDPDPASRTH
Test: Enzyme assay for inhibition of human polymorphonuclear leukocyte elastase via hydrolysis of Boc-AAPAN or Boc-AAPVN
Type: biochemical
Conditions: expressed to the nearest thousand; for kinact/KI: pH 7.5, second order rate constant for inactivation of the enzyme, read-out: Kobs/[I]
In short: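 Crude human PMN extract as enzyme source, with 0.2 mM Boc-AAPAN in 0.05M TES buffer pH 7.5. Inhibitors in DMSO were added to substrate before the extract, and rate was followed as ΔOD/min at 410 mµ. Values are kobs/I, the second-order inactivation rate constant (per mole per second).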

Row | Compound | kinact/KI | Kobs/[I] (second order rate constant for inactivation of the enzyme, pH 7.5)
1 | CCC[C@@H](NC(=O)N1C(=O)C(CC)(CC)[C@@H]1Oc1ccc(C(=O)N2CCN(CC(C)C)CC2)cc1)c1ccc(C)cc1 [Compound 249] | 2.48e+06 M⁻¹ s⁻¹ | –
2 | CCC[C@@H](NC(=O)N1C(=O)C(CC)(CC)[C@@H]1Oc1ccc(C(=O)N2CCN(CC(=O)OCC)CC2)cc1)c1ccc(C)cc1 [Compound 250] | 1.57e+06 M⁻¹ s⁻¹ | –
3 | CCC[C@@H](NC(=O)N1C(=O)C(CC)(CC)[C@@H]1Oc1ccc(C(=O)N2CCN(CC(=O)O)CC2)cc1)c1ccc(C)cc1 [Compound 251] | 1.95e+06 M⁻¹ s⁻¹ | –
4 | CCC[C@@H](NC(=O)N1C(=O)C(CC)(CC)[C@@H]1Oc1ccc(C(=O)N2CCN(CC)CC2)cc1)c1ccc(C)cc1 [Compound 252] | 2.32e+06 M⁻¹ s⁻¹ | –
5 | CCC[C@@H](NC(=O)N1C(=O)C(CC)(CC)[C@@H]1Oc1ccc(C(=O)N2CCN(CCC)CC2)cc1)c1ccc(C)cc1 [Compound 253] | 1.77e+06 M⁻¹ s⁻¹ | –
6 | CCC[C@@H](NC(=O)N1C(=O)C(CC)(CC)[C@@H]1Oc1ccc(C(=O)N2CCN(c3ncccn3)CC2)cc1)c1ccc(C)cc1 [Compound 254] | 2.14e+06 M⁻¹ s⁻¹ | –
7 | CCC[C@@H](NC(=O)N1C(=O)C(CC)(CC)[C@@H]1Oc1ccc(C(=O)N2CCN(CCOC(=O)NC)CC2)cc1)c1ccc(C)cc1 [Compound 255] | 2.55e+06 M⁻¹ s⁻¹ | –
8 | CCC[C@@H](NC(=O)N1C(=O)C(CC)(CC)[C@@H]1Oc1ccc(C(=O)N2CCN(CCO)CC2)cc1)c1ccc(C)cc1 [Compound 256a, [S-(R*,S*)]-2-[4-[[(4-Hydroxyethyl)piperazin-1-yl]carbonyl]phenoxy]-((3,3-diethyl-N-[1-(methylphenyl)butyl]-4-oxo-1-azetidinecarboxamide] | 2e+06 M⁻¹ s⁻¹ | –
9 | CCC[C@@H](NC(=O)N1C(=O)C(CC)(CC)[C@@H]1Oc1ccc(CC(N)=O)cc1)c1ccc2c(c1)OCO2 [Compound 257] | 2.34e+06 M⁻¹ s⁻¹ | –
10 | CCC[C@@H](NC(=O)N1C(=O)C(CC)(CC)[C@@H]1Oc1ccc(CC(=O)N2CCOCC2)cc1)c1ccc2c(c1)OCO2 [Compound 258] | 1.78e+06 M⁻¹ s⁻¹ | –
11 | CCC[C@@H](NC(=O)N1C(=O)C(CC)(CC)[C@@H]1Oc1ccc(CC(=O)N(C)CCN(C)C)cc1)c1ccc2c(c1)OCO2 [Compound 259] | 2.52e+06 M⁻¹ s⁻¹ | –
12 | CCC[C@@H](NC(=O)N1C(=O)C(CC)(CC)[C@@H]1Oc1ccc(C(=O)N(C)CCN(C)C)cc1)c1ccc2c(c1)OCO2 [Compound 260] | 3.32e+06 M⁻¹ s⁻¹ | –
13 | CCC[C@@H](NC(=O)N1C(=O)C(CC)(CC)[C@@H]1Oc1ccc(C(=O)N(CC)CC)cc1)c1ccc2c(c1)OCO2 [Compound 261] | 3.21e+06 M⁻¹ s⁻¹ | –
14 | CCCCN(C)C(=O)c1ccc(O[C@@H]2N(C(=O)N[C@H](CCC)c3ccc4c(c3)OCO4)C(=O)C2(CC)CC)cc1 [Compound 262] | 3.12e+06 M⁻¹ s⁻¹ | –
15 | CCC[C@@H](NC(=O)N1C(=O)C(CC)(CC)[C@@H]1Oc1ccc(C(=O)N2CCN(C)CC2)cc1)c1ccc2c(c1)OCO2 [Compound 263, [S-(R*,S*)]-2-[4-[[(4-Methyl)piperazin-1-yl]carbonyl]phenoxy]-((3,3-diethyl-N-[1-(3,4-methylenedioxyphenyl)butyl]-4-oxo-1-azetidinecarboxamide] | 3.8e+06 M⁻¹ s⁻¹ | –
16 | CCC[C@@H](NC(=O)N1C(=O)C(CC)(CC)[C@@H]1Oc1ccc(C(=O)N(C)CCN(C)Cc2ccccc2)cc1)c1ccc2c(c1)OCO2 [Compound 264] | 3.43e+06 M⁻¹ s⁻¹ | –
17 | CCC[C@@H](NC(=O)N1C(=O)C(CC)(CC)[C@@H]1Oc1ccc(C(=O)N2CCN(C3CC3)CC2)cc1)c1ccc2c(c1)OCO2 [Compound 265, [S-(R*,S*)]-2-[4-[[(4-Cyclopropyl)piperazin-1-yl]carbonyl]phenoxy]-((3,3-diethyl-N-[1-(3,4-methylenedioxyphenyl)butyl]-4-oxo-1-azetidinecarboxamide] | 4.5e+06 M⁻¹ s⁻¹ | –
18 | CCC[C@@H](NC(=O)N1C(=O)C(CC)(CC)[C@@H]1Oc1ccc(C(=O)N2CCNCC2)cc1)c1ccc2c(c1)OCO2 [Compound 265a, [S-(R*,S*)]-2-[4-[[(4-Piperazin-1-yl)carbonyl]phenoxy] -((3,3-diethyl-N-[1-(3,4-methylenedioxyphenyl)butyl]-4-oxo-1-azetidinecarboxamide] | 3.25e+06 M⁻¹ s⁻¹ | –
19 | CCC[C@@H](NC(=O)N1C(=O)C(CC)(CC)[C@@H]1Oc1ccc(C(=O)N2CCN(CCO)CC2)cc1)c1ccc2c(c1)OCO2 [Compound 265c, [S-(R*,5*)]-2-[4-[[(4-Hydroxyethyl)piperazin-1-yl]carbonyl]phenoxy]-((3,3-diethyl-N-[1-(3,4-methylenedioxyphenyl)butyl]-4-oxo-1-azetidinecarboxamide] | 4.8e+06 M⁻¹ s⁻¹ | –
20 | CCC[C@@H](NC(=O)N1C(=O)C(CC)(CC)[C@@H]1Oc1ccc(C(=O)N2CCOCC2)cc1)c1ccc2c(c1)OCO2 [Compound 265d] | 3.7e+06 M⁻¹ s⁻¹ | –
21 | CCC[C@@H](NC(=O)N1C(=O)C(CC)(CC)[C@@H]1Oc1ccc(CC(=O)N2CCOCC2)cc1)c1cccc(C(=O)N2CCOCC2)c1 [Compound 266] | 169000 M⁻¹ s⁻¹ | –
22 | CCC[C@@H](NC(=O)N1C(=O)C(CC)(CC)[C@@H]1Oc1ccc(CC(=O)N(CC)CC)cc1)c1cccc(C(=O)N2CCOCC2)c1 [Compound 267] | 334000 M⁻¹ s⁻¹ | –
23 | CCC[C@@H](NC(=O)N1C(=O)C(CC)(CC)[C@@H]1Oc1ccc(CC(=O)N(C)CCN(C)C)cc1)c1cccc(C(=O)N2CCOCC2)c1 [Compound 268] | 142000 M⁻¹ s⁻¹ | –
24 | CCC[C@@H](NC(=O)N1C(=O)C(CC)(CC)[C@@H]1Oc1ccc(CC(N)=O)cc1)c1ccc(C)c(C(=O)N2CCOCC2)c1 [Compound 269] | 637000 M⁻¹ s⁻¹ | –

Row | Compound | kinact/KI | Kobs/[I] (second order rate constant for inactivation of the enzyme, pH 7.5)
25 | CCC[C@@H](NC(=O)N1C(=O)C(CC)(CC)[C@@H]1Oc1ccc(CC(=O)N(CC)CC)cc1)c1ccc(C)c(C(=O)N2CCOCC2)c1 [Compound 270] | 740000 M⁻¹ s⁻¹ | –
26 | CCC[C@@H](NC(=O)N1C(=O)C(CC)(CC)[C@@H]1Oc1ccc(CC(=O)N(CCC)CCC)cc1)c1ccc(C)c(C(=O)N2CCOCC2)c1 [Compound 271] | 826000 M⁻¹ s⁻¹ | –
27 | CCC[C@@H](NC(=O)N1C(=O)C(CC)(CC)[C@@H]1Oc1ccc(C(=O)N(C)CCN(C)C)cc1)c1ccc(CC)c(C(=O)N2CCOCC2)c1 [Compound 272] | 2.42e+06 M⁻¹ s⁻¹ | –
28 | CCCCN(C)C(=O)c1ccc(O[C@@H]2N(C(=O)N[C@H](CCC)c3ccc(CC)c(C(=O)N4CCOCC4)c3)C(=O)C2(CC)CC)cc1 [Compound 273] | 3.26e+06 M⁻¹ s⁻¹ | –
29 | CCC[C@@H](NC(=O)N1C(=O)C(CC)(CC)[C@@H]1Oc1ccc(CC(N)=O)cc1)c1ccc(C(=O)N2CCOCC2)cc1 [Compound 274] | 430000 M⁻¹ s⁻¹ | –
30 | CCC[C@@H](NC(=O)N1C(=O)C(CC)(CC)[C@@H]1Oc1ccc(CC(=O)N(C)CCN(C)C)cc1)c1ccc(C(=O)N2CCOCC2)cc1 [Compound 275] | 290000 M⁻¹ s⁻¹ | –
31 | CCC[C@@H](NC(=O)N1C(=O)C(CC)(CC)[C@@H]1Oc1ccc(CC(=O)OC)cc1)c1ccc(C(=O)N2CCOCC2)cc1 [Compound 276] | 440000 M⁻¹ s⁻¹ | –
32 | CCC[C@@H](NC(=O)N1C(=O)C(CC)(CC)[C@@H]1Oc1ccc(C(=O)N(C)CCN(C)C)cc1)c1ccc(C(=O)N2CCOCC2)cc1 [Compound 277] | 548000 M⁻¹ s⁻¹ | –
33 | CCC[C@@H](NC(=O)N1C(=O)C(CC)(CC)[C@@H]1Oc1ccc(C(=O)OCCN(C)C)cc1)c1ccc(C(=O)N2CCOCC2)cc1 [Compound 278] | 135000 M⁻¹ s⁻¹ | –
34 | CCC[C@@H](NC(=O)N1C(=O)C(CC)(CC)[C@@H]1Oc1ccc(C(=O)N(CC)CC)cc1)c1ccc(C(=O)N2CCOCC2)cc1 [Compound 279] | 566000 M⁻¹ s⁻¹ | –
35 | CCC[C@@H](NC(=O)N1C(=O)C(CC)(CC)[C@@H]1Oc1ccc(C(=O)N2CCOCC2)cc1)c1ccc(C(=O)N2CCOCC2)cc1 [Compound 280] | 577000 M⁻¹ s⁻¹ | –
36 | CCC[C@@H](NC(=O)N1C(=O)C(CC)(CC)[C@@H]1Oc1ccc(CC(=O)N2CCOCC2)cc1)c1ccc(C(=O)O)cc1 [Compound 281] | 62000 M⁻¹ s⁻¹ | –
37 | CCC[C@@H](NC(=O)N1C(=O)C(CC)(CC)[C@@H]1Oc1ccc(CC(=O)N2CCOCC2)cc1)c1ccc(C(=O)OCCN(C)C)cc1 [Compound 282] | 421000 M⁻¹ s⁻¹ | –
38 | CCC[C@@H](NC(=O)N1C(=O)C(CC)(CC)[C@@H]1Oc1ccc(CC(=O)N2CCOCC2)cc1)c1ccc(C(=O)N(C)CCN(C)C)cc1 [Compound 283] | 393000 M⁻¹ s⁻¹ | –
39 | CCC[C@@H](NC(=O)N1C(=O)C(CC)(CC)[C@@H]1Oc1ccc(CC(=O)N(C)CCN(C)C)cc1)c1ccc(O)cc1 [Compound 284] | 309000 M⁻¹ s⁻¹ | –
40 | CCC[C@@H](NC(=O)N1C(=O)C(CC)(CC)[C@@H]1Oc1ccc(CC(=O)N(C)CCN(C)C)cc1)c1ccc(OC)cc1 [Compound 285] | – | 566,000 per mole per second
41 | CCC[C@@H](NC(=O)N1C(=O)C(CC)(CC)[C@@H]1Oc1ccc(C(=O)N(C)CCN(C)C)cc1)c1ccc(C(=O)N(C)C)cc1 [Compound 286] | 551000 M⁻¹ s⁻¹ | –
42 | CCC[C@@H](NC(=O)N1C(=O)C(CC)(CC)[C@@H]1Oc1ccc(C(=O)N(C)CCN(C)C)cc1)c1ccc(C(=O)O)cc1 [Compound 287] | 113000 M⁻¹ s⁻¹ | –
43 | CCC[C@@H](NC(=O)N1C(=O)C(CC)(CC)[C@@H]1Oc1ccc(C(=O)N(C)CCN(C)C)cc1)c1ccc(CO)cc1 [Compound 288] | 854000 M⁻¹ s⁻¹ | –
44 | CCC[C@@H](NC(=O)N1C(=O)C(CC)(CC)[C@@H]1Oc1ccc(CC(=O)N(C)CCN(C)C)cc1)c1ccc(OC)cc1 [Compound 289] | 754000 M⁻¹ s⁻¹ | –
45 | CCC[C@@H](NC(=O)N1C(=O)C(CC)(CC)[C@@H]1Oc1ccc(C(=O)N(C)CCN(C)C)cc1)c1ccc(OC)cc1 [Compound 290] | 1.01e+06 M⁻¹ s⁻¹ | –
46 | CCC[C@@H](NC(=O)N1C(=O)C(CC)(CC)[C@@H]1Oc1ccc(C(=O)N(C)CCN(C)C)cc1)c1cccc(OC)c1 [Compound 291] | 1.75e+06 M⁻¹ s⁻¹ | –
47 | CCC[C@@H](NC(=O)N1C(=O)C(CC)(CC)[C@@H]1Oc1ccc(CC(=O)N2CCOCC2)cc1)c1ccc(C)c(COC(=O)N(CC)CC)c1 [Compound 292] | 807000 M⁻¹ s⁻¹ | –
